Measurements taken from patent publication US20120065181A1, “METHOD OF PROVIDING NEUROPROTECTION USING SUBSTITUTED PORPHYRINS” (priority 2009, published 2012).

How the values were obtained:
[1] = tested on: subarachnoid hemorrhage (SAH) in mice; assay: Neurologic evaluation after murine subarachnoid hemorrhage (endovascular perforation); format: in vivo
From the text: At completion of the predefined recovery interval, rats underwent a neurologic examination to evaluate sensorimotor function. The neurological scoring system evaluates four different functions (general status, simple motor deficit, complex motor deficit, and sensory deficit). The score given to each animal (by an observer blinded to group assignment) was the sum of all four individual scores, 0 being the minimum (best) score and 48 being the maximum (worst) score. This examination was developed combining features from several neurologic evaluations reported for rat MCAO and has been used in two long-term MCAO outcome studies to assess for differences in treatment outcome (Yokoo et al. Anesth Analg. 2004; 99:896-903; Sakai et al. Anesthesiology. 2007; 106:92-99; discussion 98-10.) Values from this scoring system correlate well with total infarct volume in rats allowed to survive 8 weeks post-MCAO (R2 value of 0.78, P=0.006, Sakai et al.) as well as 2 and 8 weeks post-MCAO (Yokoo et al.). […]
Seventy-two hrs post-SAH, mice were neurologically evaluated as described above, with the experimenter blinded to group assignment. Normal neurologic function was scored as 0 with the maximal deficit score=48. […]

[2] = tested on: cerebral arteries of mice post-SAH; assay: Arterial cross-sectional diameter by intraluminal arterial casting after murine SAH; format: in vivo; details: 72 hrs post-SAH
Method: Male mice (body weight=20-25 gm) were anesthetized with isoflurane and subjected to endovascular perforation of the right anterior cerebral artery just distal to the middle cerebral artery bifurcation. Mice were allowed to recover from anesthesia and randomly assigned to treatment ([…] MnTnHex-2-PyP^5+ twice per day, i.p. with treatment begun 60 min post-SAH, n=15) and vehicle (saline 0.1 ml twice a day, n=15) groups.
The mice were anesthetized and subjected to intraluminal arterial casting for later determination of arterial cross-sectional diameter. Subarachnoid clot size was graded using a standardized scoring system.
Three mice died in the vehicle group (2 died 3 days post-SAH, 1 died 2 days post-SAH). Neurologic scores in surviving mice and clot size were compared with the Mann-Whitney U statistic. Vessel diameters were compared with the Student's t test.

[3] = tested on: rats subjected to 90 min MCAO; assay: Neurologic score after 90 min middle cerebral artery occlusion (MCAO); format: in vivo, rat; details: then twice daily s.c. for 7 days
From the text: (§1) Male Wistar rats (250-275 gm; Harlan Sprague Dawley, Inc. Indianapolis, Ind.) were anesthetized with 64-mg/kg intraperitoneal sodium pentobarbital and positioned in a stereotactic head frame. The skin was infiltrated with 1.0% lidocaine and a midline scalp incision was made. A burr hole was drilled over the left hemisphere, 7.2 mm anterior to the interauralline and 1.4 mm lateral to the sagittal suture. An intracerebroventricular (ICV) cannula (33 gauge) was positioned with the tip in the left lateral ventricle and fixed in place with screws and cyanoacrylate. The incision was closed with suture around this assembly. After emergence from anesthesia, the animals were returned to their cages with free access to water and food.
Following 2-3 days recovery, rats were allowed access to water but fasted from food for 12 hours to standardize glycemic state. Rats were then anesthetized with isoflurane in O2. Following tracheal intubation, the lungs were mechanically ventilated to maintain normocapnia. A 22-g needle thermistor was percutaneously placed adjacent to the skull beneath the temporalis. Pericranial temperature was servoregulated at 37.5±0.1° C. by surface heating or cooling. […]
Rats were subjected to 90 min middle cerebral artery occlusion. […] The doses were repeatedly twice daily as subcutaneous injections for 7 days after which neurologic function was assessed as described above. […]

[4] = tested on: rats subjected to 90 min MCAO; assay: Cerebral infarct volume after 90 min MCAO; format: in vivo, rat; details: 7 days after MCAO
From the text: as §1
Following 2-3 days recovery, rats were allowed access to water but fasted from food for 12 hours to standardize glycemic state. Rats were then anesthetized with isoflurane in O2. Following tracheal intubation, the lungs were mechanically ventilated to maintain normocapnia. A 22-g needle thermistor was percutaneously placed adjacent to the skull beneath the temporalis. Pericranial temperature was servoregulated at 37.5±0.1° C. by surface heating or cooling. The inspired isoflurane concentration was adjusted to 1.0-1.5% in 50% O2/balance N2. The tail artery was cannulated. The animals were then prepared for MCAO as previously described [Mackensen et al. J. Neurosci. 21:4582-4592, 2001; Longa et al. Stroke 20:84-91, 1989]. A midline cervical incision was made and the right common carotid artery was identified. […] The internal carotid artery (ICA) was dissected distally until the origin of the pterygopalatine artery was visualized. Following surgical preparation, a 20 min interval was allowed for physiologic stabilization.
Five min before MCAO onset, heparin (50 IU intra-arterial) was given to prevent intra-arterial thrombosis. A 0.25-mm diameter nylon monofilament, prepared with a silicone tip, was inserted into the ECA stump and passed distally through the ICA (20 mm from carotid bifurcation) until resistance was felt and the filament was secured. At MCAO onset, isoflurane was reduced to 0.8-1.0%.
After 90 min of MCAO, the occlusive filament was removed. The anesthetic state and pericranial temperature regulation were continued for an additional 100 min. The tail artery catheter was removed and the wounds were closed with suture. Isoflurane was discontinued. Upon recovery of the righting reflex, the tracheas were extubated and the animals were placed in an O2 enriched environment (FIO2=50%) for 1 hour. Animals were then randomized to experimental groups (see below).
Animals were weighed, anesthetized with isoflurane, and decapitated. The brains were removed, frozen at −40° C. in 2-methylbutane, and stored at −70° C. Infarct volume was measured by comparing the volume of histologically normal tissue observed in the ischemic hemisphere to the expected volume of normal tissue as derived from measurements of the contralateral, non-ischemic hemisphere [Swanson et al. J. Cereb. Blood Flow Metab. 10:290-293, 1990]. Serial quadruplicate […] coronal sections were taken using a cryotome at […] over the rostral-caudal extent of the infarct. The sections were dried and stained with hematoxylin and eosin. A section from each 660-μm interval was digitized with a video camera controlled by an image analyzer. […] With the observer blinded to experimental condition, the following regions of interest (ROI) were cursor outlined: non-infarcted ipsilateral cerebral cortex, non-infarcted ipsilateral subcortex, contralateral cerebral cortex, and contralateral subcortex. The area within each ROI (mm2) was determined by automated counting of calibrated pixels. Ipsilateral non-infarcted cortex and subcortex areas were subtracted from the corresponding contralateral ROI values to estimate the area of ischemic tissue damage to control for brain edema [Lin et al. Stroke 24:117-121, 1993]. […]

[5] = tested on: NF-κB; assay: EMSA of NF-κB DNA binding in nuclear extracts of ischemic brain after MCAO; format: in vivo, rat; details: 225 μg/kg IV after 90 min MCAO, ischemic brain harvested six hr later, 2 treated vs 2 vehicle rats
Method: (§2) Intravenous MnTnHex-2-PyP^5+ (hexyl) decreases post-ischemic NF-κB DNA binding to a κB consensus oligo due inhibition of NF-κB p65 nuclear translocation. Data are from 4 rats subjected to 90 min MCAO and then treated with vehicle or MnTnHex-2-PyP^5+ (225 μg/kg IV). Six hr later, ischemic brain was harvested for EMSA performed on nuclear extracts ([…]). Upper gel (EMSA): D and E (without and with p65 antibody, respectively) are rat #1 (vehicle). F and G (without and with p65 antibody, respectively) are rat #2 (hexyl). H and I=vehicle rat #3 (with and without p65). J and K=rat #4 (hexyl) with and without p65. A-C are control lanes (A=probe only, B=positive control (HeLa nuclear extract), C=cold competitor). Two slower migrating DNA binding complexes are observed (shift). The proteins in the slower migrating complexes were identified by super shift analysis with […] of p65-specific antibody. […] Lower gel: […]) from the same nuclear samples were immunoblotted with NF-κB p65-specific antibody, confirming NF-κB inhibition by MnTnHex-2-PyP^5+.

[6] = tested on: NF-κB p65; assay: Immunoblot of nuclear samples with NF-κB p65-specific antibody after MCAO; format: in vivo, rat; details: 225 μg/kg IV after 90 min MCAO; ischemic brain harvested six hr later
Method: as §2

[7] = tested on: TNF-α; assay: Cerebral TNF-α level by ELISA after MCAO; format: in vivo, rat; details: 225 μg/kg IV 5 min after reperfusion, s.c. at 12 and 18 hrs post-MCAO; brains harvested 24 hrs post-MCAO; n=3; P=0.04
Method: (§3) Rats were subjected to 90 min middle cerebral artery occlusion. Five min after onset of reperfusion, rats were randomly treated with vehicle (n=3) or 225 μg/kg IV MnTnHex-2-PyP^5+ (n=3) followed by subcutaneous vehicle or 225 μg/kg MnTnHex-2-PyP^5+, respectively, at 12 and 18 hrs post-MCAO. Brains were harvested at 24 hrs post-MCAO and analyzed for TNF-α and IL-6 by fluorescent enzyme-linked immunosorbent assay. Whole cell lysates from the whole brain tissue were obtained at the end of each experiment according to manufacture's protocol (Roche) with light modification. In brief, about 100 mg of brain tissue, which was diced into small pieces using a clean razor blade on ice, was placed into a pre-chilled microcentrifuge tube and further processed with […] of ice-cold lysis buffer (50 mM Tris-HCl, pH 7.5, 150 mM NaCl, 1% Nonidet P40, 0.5% sodium deoxycholat, 0.1% SDS, protease inhibitors). Samples were homogenized 10 seconds and incubated for 30 minutes on ice. Homogenates were centrifuged at 14,000 g for 10 minutes at 4° C. Supernatants were collected and proteins were measured by a BCA Protein Assay Kit (Thermo Scientific). Cerebral levels of TNF-α and IL-6 were determined by rat specific ELISA kits (Thermo Scientific, IL) and normalized by the total amount of proteins (pg/mg).

[8] = tested on: IL-6; assay: Cerebral IL-6 level by ELISA after MCAO; format: in vivo, rat; details: 225 μg/kg IV 5 min after reperfusion, s.c. at 12 and 18 hrs post-MCAO; brains harvested 24 hrs post-MCAO; n=3; P=0.04
Method: as §3

Q: Which “neuroscore (median±interquartile range)” value ([1]; 72 hrs post-SAH, 225 mg/kg twice per day i.p. begun 60 min post-SAH, n=14, 0=no deficit, maximal deficit 48, P=0.02 vs vehicle (14±21)) does the source give for CCCCCC[n+]1ccccc1-c1c2nc(c(-c3cccc[n+]3CCCCCC)c3ccc([n-]3)c(-c3cccc[n+]3CCCCCC)c3nc(c(-c4cccc[n+]4CCCCCC)c4ccc1[n-]4)C=C3)C=C2.[Mn+3] [MnTnHex-2-PyP^5+, Mn(III) 5,10,15,20-tetrakis(N-n-hexylpyridinium-2-yl)porphyrin] here?
A: 2.5±9

Q: What about the “deaths in treatment group” value ([1]; murine SAH, 225 mg/kg twice per day i.p., n=15, three mice died in vehicle group) of the same compound?
A: One mouse in the MnTnHex-2-PyP^5+ group died at 2 days post-SAH

Q: And the “right anterior cerebral artery diameter (mean±SD)” value ([2]; vs vehicle 82±36 μm, P=0.0005)?
A: 130±19 μm

Q: And the “right middle cerebral artery diameter (mean±SD)” value ([2]; vs vehicle 83±33 μm, P=0.0033)?
A: 123±29 μm

Q: And the “right internal carotid artery diameter (mean±SD)” value ([2]; vs vehicle 109±35 μm, P=0.015)?
A: 143±30 μm

Q: And the “basilar artery diameter (mean±SD)” value ([2]; vs vehicle 198±19 μm, P=0.723, no effect of treatment)?
A: 200±17 μm

Q: What about the Neurologic score ([3]; 225 μg/kg i.v. 5 min after reperfusion onset, P=0.002 vs vehicle) of the same compound?
A: improved

Q: What about the Neurologic score ([3]; 225 μg/kg intra-arterial plus s.c. 6 hours after reperfusion onset, P=0.04 vs vehicle) of the same compound?
A: improved

Q: What about the “cerebral infarct volume in the subcortex” value ([4]; 225 μg/kg i.v. 5 min after reperfusion onset, then twice a day s.c., P=0.01) of the same compound?
A: reduced

Q: And the “reduction in total infarct volume” value ([4]; 225 μg/kg i.v. 5 min after reperfusion onset, then twice a day s.c., P=0.028)?
A: 32%

Q: And the “cerebral infarct volume in the cortex” value ([4]; 225 μg/kg i.v. 5 min after reperfusion onset, then twice a day s.c., P=0.05)?
A: reduced

Q: What about the “cerebral infarct volume in the cortex” value ([4]; 225 μg/kg intra-arterial plus s.c. 6 hrs after reperfusion onset, then twice daily s.c., P=0.01) of the same compound?
A: reduced

Q: And the “reduction in total infarct volume” value ([4]; 225 μg/kg intra-arterial plus s.c. 6 hrs after reperfusion onset, then twice daily s.c., P=0.03)?
A: 37%

Q: And the “Infarct size in the subcortex” value ([4]; 225 μg/kg intra-arterial plus s.c. 6 hrs after reperfusion onset, then twice daily s.c., P=0.58)?
A: not changed

Q: What about the “post-ischemic NF-κB DNA binding to a κB consensus oligo (EMSA)” value [5] of the same compound?
A: Marked reduction

Q: And the “NF-κB p65 nuclear translocation (immunoblot of nuclear samples)” value [6]?
A: inhibition

Q: What about the “TNF-α concentration in brain” value [7] of the same compound?
A: decreased

Q: What about the “IL-6 concentration in brain” value [8] of the same compound?
A: decreased
